Values quoted from earlier work, collected in patent US9156879B1, “Chromatography media” (Merck Sharp & Dohme Corp., priority 2010, dated 2015).

Conditions: critical micelle concentration of detergent

Compound | CMC % (w/v)
CCCCCCCCO[C@@H]1O[C@H](CO)[C@@H](O)[C@H](O)[C@H]1O [Octylglucoside] | 0.73 % (w/v)
LysoPC | 0.0004 % (w/v)
C[C@H](CCC(=O)NCCC[N+](C)(C)CCCS(=O)(=O)[O-])[C@H]1CC[C@H]2[C@@H]3[C@H](O)C[C@@H]4C[C@H](O)CC[C@]4(C)[C@H]3C[C@H](O)[C@]12C [CHAPS, 3[(3-cholamidopropyl)dimethylammonio]-1-propanesulfonate] | 0.49 % (w/v)
C[C@H](CCC(=O)O)[C@H]1CC[C@H]2[C@@H]3[C@H](O)C[C@@H]4C[C@H](O)CC[C@]4(C)[C@H]3C[C@H](O)[C@]12C [Cholate] | 0.60 % (w/v)
CCCCCCCCCCCCCCCC[N+](C)(C)C.[Br-] [C16TAB] | 0.04 % (w/v)
Deoxycholate | 0.21 % (w/v)
CCCCCCCCCCCCOCCOCCOCCOCCOCCOCCOCCOCCO [C12E8] | 0.005 % (w/v)
Nonidet P-40 | 0.017 % (w/v)

Continued, values first:

CMC % (w/v) | Compound
0.021 % (w/v) | Triton X-100
0.011 % (w/v) | CCCCCCCCCCCCCC[N+](C)(C)CCCS(=O)(=O)[O-] [Zwittergent 3-14]
0.002 % (w/v) | CCCCCCCC/C=C\CCCCCCCC(=O)OCCOCC(OCCO)C1OCC(OCCO)C1OCCO (stereo not drawn) [Tween 80]
0.23 % (w/v) | CCCCCCCCCCCCOS(=O)(=O)[O-].[Na+] [SDS, sodium dodecyl sulfate]
